This is an account of results in US20220380430A1, “Non-Transgenic Functional Rescue of Neuropeptides” (Worcester Polytechnic Institute, priority 2021, published 2022).

For one assay, the target named is T1, NPR-10B (Caenorhabditis elegans, UniProt Q6EUU1).
T1 sequence (Q6EUU1 1-362): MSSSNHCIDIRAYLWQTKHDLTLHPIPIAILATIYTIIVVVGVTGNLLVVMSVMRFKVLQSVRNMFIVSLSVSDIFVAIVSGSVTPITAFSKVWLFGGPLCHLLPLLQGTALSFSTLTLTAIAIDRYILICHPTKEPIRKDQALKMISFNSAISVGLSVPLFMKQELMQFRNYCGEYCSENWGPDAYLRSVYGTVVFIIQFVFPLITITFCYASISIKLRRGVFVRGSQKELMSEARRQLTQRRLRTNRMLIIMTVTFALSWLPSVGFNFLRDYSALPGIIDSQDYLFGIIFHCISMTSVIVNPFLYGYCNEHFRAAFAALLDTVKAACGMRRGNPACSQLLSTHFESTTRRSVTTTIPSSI
Put plainly: In vitro GPCR activation assay (CHO-K1 cells, aequorin, human Gα16), NPR-10B. In kind it is cell-based, C. elegans. As to conditions: title: NPR-10B; calcium/aequorin luminescence in transfected CHO-K1 cells. Here is the method: Using Chinese hamster ovarian (CHO) cell cultures stably expressing the promiscuous G protein, Gα16, and the calcium reporter, aequorin, it was observed that both isoforms of NPR-10 are activated by seven of the ten FLP-3 peptides, with half-maximal effective concentrations (EC50) in the nM range (FIG. 14A-FIG. 14H, Table V). […] This peptide contains an R-to-K mutation within the C-terminal motif, which may explain the lack of receptor activation.
(§1) The GPCR activation assay was performed as previously described Van Sinay, E. et al. Proc. Natl Acad. Sci. USA 114, E4065-e4074 (2017) and Peymen, K. et al. PLoS Genet. 15, e1007945 (2019). Briefly, npr-10 and frpr-16 cDNAs were cloned into the pcDNA3.1 TOPO expression vector (Thermo Fisher Scientific). A CHO-K1 cell line (PerkinElmer, ES-000-A24) stably expressing apo-aequorin targeted to the mitochondria (mtAEQ) and human Gα16 was transiently transfected with the receptor cDNA construct or the empty pcDNA3.1 vector using Lipofectamine LTX and Plus reagent (Thermo Fisher Scientific). Cells were shifted to 28° C. one day later and allowed to incubate for 24 h. On the day of the assay, cells were collected in BSA medium (DMEM/Ham's F12 with 15 mM HEPES, without phenol red, 0.1% BSA) and loaded with […] coelenterazine h (Thermo Fisher Scientific) for 4 h at room temperature. The incubated cells were then added to synthetic peptides dissolved in DMEM/BSA, and luminescence was measured for 30 s at […] using a Mithras LB940 (Berthold Technologies) or MicroBeta LumiJet luminometer (PerkinElmer). After 30 s of readout, 0.1% triton X-100 was added to lyse the cells, resulting in a maximal calcium response that was measured for 10 s. After initial screening, concentration-response curves were constructed for HPLC-purified FLP-3 peptides by subjecting the transfected cells to each peptide in a concentration range from 1 pM to 10 μM. Cells transfected with an empty vector were used as a negative control. Assays were performed in triplicate on at least two independent days. Concentration-response curves were fitted using Prism v. 7 (nonlinear regression analysis with a sigmoidal concentration-response equation).

The target in the next assay is T2, FRPR-16 (Caenorhabditis elegans, UniProt Q21957).
T2 sequence (Q21957 1-340): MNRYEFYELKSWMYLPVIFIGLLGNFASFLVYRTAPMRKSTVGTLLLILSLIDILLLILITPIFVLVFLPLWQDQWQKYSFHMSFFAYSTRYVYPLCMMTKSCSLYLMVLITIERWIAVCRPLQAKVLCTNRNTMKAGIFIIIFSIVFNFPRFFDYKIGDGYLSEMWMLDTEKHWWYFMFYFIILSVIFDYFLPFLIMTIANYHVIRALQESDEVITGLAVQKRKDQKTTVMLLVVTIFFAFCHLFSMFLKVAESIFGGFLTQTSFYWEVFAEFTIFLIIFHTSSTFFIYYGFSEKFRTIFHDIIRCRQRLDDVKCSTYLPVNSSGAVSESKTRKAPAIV
Put plainly: In vitro GPCR activation assay (CHO-K1 cells, aequorin, human Gα16), FRPR-16. In kind it is cell-based, C. elegans. To be noted: calcium/aequorin luminescence in transfected CHO-K1 cells. Here is the method: as §1

The subject of assay [1] is flp-3 lof males. Put plainly: Drop avoidance assay to ascr #8 after FLP-3 peptide rescue-by-feeding. In kind it is in vivo, C. elegans. As to conditions: flp-3 lof males raised on peptide; 1 μM ascr #8; in words. As to the method: To identify which FLP-3 peptides are required for male avoidance of ascr #8, a peptide feeding approach https://www.nature.com/articles/s42003-021-02547-7-ref-CR59 was adopted, similar to RNAi feeding (FIG. 16A). Using Gateway Cloning technology, FLP-3 peptide coding sequences were inserted into a bacterial expression vector. As a control, first the FLP-3 peptides were tested that are still encoded in the ok3625 allele which are insufficient to drive the proper ascr #8 response in vivo: FLP-3-1 (SPLGTMRFamide) (SEQ ID NO: 10) and FLP-3-4 (NPLGTMRFamide) (SEQ ID NO: 11). Then flp-3 lof animals were reared on lawns of bacteria expressing the rescue constructs, and their progeny were assayed for avoidance (FIG. 16B-FIG. 16D).
Assays were performed as described previously in Chute, C. D. & Srinivasan, J. Semin. Cell Dev. Biol. 33, 18-24 (2014); Chute, C. D. et al. Nat. Commun. 10, 3186 (2019); and Hilliard, M. A. et al., EMBO J. 23, 1101-1111 (2004). Fifty to sixty L4 worms were segregated by sex and stored at 20° C. for 5 h to overnight to be assayed as young adults. One to four hours prior to the assay, the lids of unseeded plates were tilted to allow any excess moisture to evaporate off the plates. At the time of the assay, 10 or more animals were transferred onto each of the dried, unseeded plates. A drop of either water or 1 μM ascr #8 was placed on the tail of forward moving animals, and their response was scored as either an avoidance response, or no response. The total number of avoidances was divided by the total number of drops to generate an avoidance index for that plate. This was repeated for at least 10 plates over at least three different days.
SCRAMBLE control or FLP-3 peptide constructs were grown overnight in LB media containing […] ampicillin at 37° C. and diluted to an OD600 of 1.0 prior to seeding on NGM plates containing […] ampicillin and 1 mM IPTG. The 75 μL lawn was left to dry and grow overnight at room temperature before three L4 animals were placed on the plates. Males were selected for testing in the same manner as described above but were isolated onto plates also seeded with the same peptide on which they had been reared. Animals were then assayed using either the avoidance assay or single worm assay.

Assay [2] has as its system flp-3 lof males. Description: Single worm attraction assay (SWAA) to ascr #8 after FLP-3 peptide rescue-by-feeding. In kind it is in vivo, C. elegans. As to conditions: flp-3 lof males raised on peptide; in words. As to the method: The outer forty wells of a 48-well suspension culture plate (Olympus Plastics, Cat #: 25-103) were seeded with 200 μL of standard NGM agar. To prepare the plates for the assay, they were acclimated to room temperature, at which point each well was seeded with 65 μL of OP50 E. coli. The assay plates were then transferred to a 37° C. incubator with the lid tilted for 4 h to allow the bacterial culture to dry on the agar. Once the bacterial culture dried, the lid was replaced the plate was stored at 20° C. until used in the assay. Fifty to sixty L4 worms were segregated by sex and stored at 20° C. for 5 h to overnight to be assayed as young adults. 0.8 μL of either vehicle control or ascaroside #8 was placed in the center of the well corresponding to that condition within the quadrant being tested, following a random block design (FIG. 11A). A single worm was placed in each of the 10 wells to be assayed, and the plate was transferred to a light source and camera and recorded for 15 m. This process was repeated for all four quadrants. Each strain and sex were assayed over five plates assayed on at least three different days. Raw dwell time values were calculated by subtracting the time a worm exited the cue (center of the well in spatial controls), from the time it entered, as in the SRA. This was determined per visit, and the average dwell time was calculated for each animal in the quadrant. Averages of the four-quadrant means were determined per plate, and a minimum of five plates were assayed per strain/condition. The mean raw dwell time across five plates was calculated and used for statistical analyses and graphical display. The average dwell time in the ascaroside was divided by the average dwell time within the vehicle control per plate to generate a fold-change. To transform the data, the log of this fold-change was taken, and the average log(fold-change) was used for statistical analyses and graphical display. […]

The test system of a further assay is ins-6 lof worms. Put plainly: NaCl chemotaxis assay after rescue-by-feeding. To be noted: 750 mM NaCl, in words. In kind it is in vivo, C. elegans. As to the method: All animals were maintained on bacterial lawns of OP50 E. coli, at 20° C., on NGM agar plates until the start of experiments. Mutant or control animals were transferred onto lawns of DH5α E. coli expressing either scramble peptide or the rescue peptide-of-interest on NGM plates containing […] AMP and 1 mM IPTG. Animals were reared on the peptide-expressing lawns for at least 48 hours at 20° C. before assaying for rescue of mutant phenotype at the appropriate developmental stage.
A salt chemotaxis assay was performed as previously described in Leinwand, S. G. & Chalasani, S. H. Nature neuroscience 16, 1461-1467 (2013); Bargmann, C. I. & Horvitz, H. R. Neuron 7, 729-742 (1991) to test the functionality of ins-6 after rescue-by-feeding. Wild-type (N2) and ins-6 worms were fed either scramble or INS-6 peptide passing 4-6 L4 larval onto an NGM plate containing […] AMP and 1 mM IPTG with 75 μL of peptide OD600=1.0. These worms were grown at 20° C. for about 4 days until the progeny of the initial L4 worms were young adults.
The day prior to testing, a thin, 10 mL layer of agar was added to 10 cm petri dishes to generate a 10 cm Chemotaxis Plates (5 mM KPO4 (pH 6.0), 1 μM MgSO4, 1 μM CaCl2), 20 g/L agar, and 8 g/L Difco Nutrient Broth). To prepare the “high salt” plates, 750 mM NaCl was added prior to plate pouring. The high salt plate were stored at 4° C. for up to one month, while the Chemotaxis Plates were made one day prior to testing. To create the high and low salt plugs, the back end of a Pasteur pipette was used to punch a 5 mm plug out of each plate. These 2 plugs were placed on opposite edges of the plate. A 10 mm radius was be drawn around the location of the plugs (FIG. 1). Plates were stored, lightly covered, overnight at room temperature (˜20° C., <40% humidity). […]
Young adult hermaphrodites are tested in the Chemotaxis Assay with no more than three replicates per day, over a minimum of three days, with 100-200 worms/assay plate. The […] Chemotaxis Index (CI) was calculated as follows: […]

pEC50: −log10 of the molar value. Entries after “also recorded” stand apart in the source; their conditions may differ. No end group written: not given here.

As usually defined, the pEC50 is the EC50 on a negative log10 scale, so that one unit is a factor of ten.

On to “NPENDTPFGTMRF-NH2 [FLP-3-9, NPENDTPFGTMRFamide]”, for which the negative-log EC50 (pEC50) was 6.12 at NPR-10B and 7.05 at FRPR-16. Also, in the assay with flp-3 lof males [1], the “rescue of avoidance phenotype to ascr #8 (Avoidance Index)” value is given as “lack of avoidance to ascr #8; also recorded: undo the Avoidance phenotype associated with the flp-3 mutation”. Moreover, the “rescue of attraction to ascr #8 (dwell time, log(fold-change))” value with flp-3 lof males [2] is given as “full rescue of their ability to be attracted to the cue; also recorded: restores the attraction to wild-type”.

Take TPLGTMRF-NH2 [FLP-3-2, TPLGTMRFamide]: the pEC50 was 6.44 at NPR-10B and 7.50 at FRPR-16. For the same substance, in the assay on flp-3 lof males [1], the “rescue of avoidance phenotype to ascr #8 (Avoidance Index)” value is given as “able to abolish the avoidance phenotype; also recorded: undo the Avoidance phenotype associated with the flp-3 mutation”. In the assay with flp-3 lof males [2], the “rescue of attraction to ascr #8 (dwell time, log(fold-change))” value was “not able to restore the animal's ability to be attracted to ascr #8; also recorded: seems to make the animals less attracted to the cue”.

“VPAPGETRACGRKLISLVMAVCGDLCNPQEGKDIATECCGNQCSDDYIRSACCP-NH2 (cysteine pairing not given here) [INS-6]”: in the assay on ins-6 lof worms (ins-6 lof worms fed peptide), the “rescue of NaCl chemotaxis” value is “complete rescue of NaCl chemotaxis; also recorded: restores the Chemotaxis Index at a level similar to the canonical transgenic rescue; also recorded: complete restoration of attraction to high salt concentration”. Moreover, in the assay on ins-6 lof worms (wild-type animals fed INS-6), the “chemotaxis on overexpression by feeding” value is given as “does not result in changes in attraction towards 750 mM NaCl; also recorded: does not affect chemotaxis in wild type animals; also recorded: slight defects in CI towards high salt”.
